Data from ChEMBL document CHEMBL5725201, “Cycloalkane derivatives” (2016).

Assay: Electrophysiological Assay: Current record was obtained by an automated patch clamp system IonWorks Quattro (Molecular Devices Corporation) in Population Patch Clamp mode. The operation was conducted in accordance with the operating procedure of the system. A Dulbecco's phosphate buffer containing calcium and magnesium (Sigma) was used as an extracellular fluid, and a low Cl-buffer (100 mM K-gluconate, 40 mM KCl, 3.2 mM MgCl2, 5 mM EGTA, 5 mM Hepes, pH 7.3) was used as an intracellular fluid. A test compound was dissolved in dimethylsulfoxide (DMSO) to prepare a 30 mM stock solution, so as to produce 4-fold serial dilutions with the extracellular fluid for attaining a DMSO concentration of 0.3% in measurement.The hNav 1.7/β1/β2 cells cultured to a 70-80% confluent state in a T150 flask (Sumilon) were washed with PBS and subsequently with versene (Invitrogen Corp.), and collected by allowing to react with 0.05% trypsin (Invitrogen Corp.) at 37° C. for 3 minutes. After washing with a culture medium, the resultant cells were suspended in an extracellular fluid at a concentration of […] so as to be used for the measurement. The cell membrane was perforated by using an intracellular fluid including 100 ug/ml amphotericin B (Sigma). Current response was obtained at a sampling frequency of 10 kHz. […]
Assay type: cell-based

`Cc1c(O[C@H]2CCCC[C@@H]2c2c[nH]nc2N)ccc(S(=O)(=O)Nc2ccncn2)c1F` showed an IC50 of 0.1 µM.
